Test results taken from ChEMBL document CHEMBL1201862, “PubChem BioAssay data set” (2004).
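How tested: cells in 96-well plates exposed to compound for 48 hours at five concentrations. GI50: concentration for 50% inhibition of growth.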 Activity calls are given as the source filed them. No stated cut-off is given here; in the data, active = GI50 up to about 1.1 µM and inactive = higher.

Tests used:
Test in all cases: growth of human tumour cells (NCI), 48 h
786-0 = system: 786-0
A498 = system: A498
A549 = system: A549
ACHN = system: ACHN
CAKI-1 = system: CAKI-1
CCRF-CEM = system: CCRF-CEM
COLO 205 = system: COLO 205
DLD-1 = system: DLD-1
DMS-273 = system: DMS-273
EKVX = system: EKVX
HCC 2998 = system: HCC 2998
HCT-116 = system: HCT-116
HCT-15 = system: HCT-15
HOP-18 = system: HOP-18
HOP-62 = system: HOP-62
HOP-92 = system: HOP-92
HT-29 = system: HT-29
IGROV-1 = system: IGROV-1
K562 = system: K562
KM-20L2 = system: KM-20L2
KM12 = system: KM12
LOX IMVI = system: LOX IMVI
LXFL 529 = system: LXFL 529
M14 = system: M14
M19-MEL = system: M19-MEL
MOLT-4 = system: MOLT-4
Malme-3M = system: Malme-3M
NCI-H226 = system: NCI-H226
NCI-H23 = system: NCI-H23
NCI-H460 = system: NCI-H460
NCI-H522 = system: NCI-H522
OVCAR-3 = system: OVCAR-3
OVCAR-4 = system: OVCAR-4
OVCAR-5 = system: OVCAR-5
RPMI-8226 = system: RPMI-8226
RXF 393 = system: RXF 393
SF-268 = system: SF-268
SF-295 = system: SF-295
SF-539 = system: SF-539
SK-MEL-28 = system: SK-MEL-28
SK-MEL-2 = system: SK-MEL-2
SK-MEL-5 = system: SK-MEL-5
SK-OV-3 = system: SK-OV-3
SN12C = system: SN12C
SNB-19 = system: SNB-19
SNB-75 = system: SNB-75
SNB-78 = system: SNB-78
SR = system: SR
SW-620 = system: SW-620
TK-10 = system: TK-10
U-251 = system: U-251
UACC-257 = system: UACC-257
UACC-62 = system: UACC-62
UO-31 = system: UO-31

## Cc1ccc(C)c(NC(=O)CC/C(=N\NC(=O)C(=O)NN)C(C)C(=O)c2ccc(O)cc2)c1 (centres undefined)
786-0
  GI50: > 100 µM (inactive)
A498
  GI50: > 100 µM (inactive)
A549
  GI50: > 100 µM (inactive)
ACHN
  GI50: > 100 µM (inactive)
CAKI-1
  GI50: > 100 µM (inactive)
CCRF-CEM
  GI50: > 100 µM (inactive)
COLO 205
  GI50: > 100 µM (inactive)
DLD-1
  GI50: > 100 µM (inactive)
DMS-273
  GI50: > 100 µM (inactive)
EKVX
  GI50: > 100 µM (inactive)
HCC 2998
  GI50: > 100 µM (inactive)
HCT-116
  GI50: > 100 µM (inactive)
HCT-15
  GI50: > 100 µM
HOP-18
  GI50: > 100 µM (inactive)
HOP-62
  GI50: > 100 µM (inactive)
HOP-92
  GI50: > 100 µM (inactive)
HT-29
  GI50: > 100 µM (inactive)
IGROV-1
  GI50: > 100 µM (inactive)
K562
  GI50: > 100 µM (inactive)
KM-20L2
  GI50: > 100 µM (inactive)
KM12
  GI50: > 100 µM (inactive)
LOX IMVI
  GI50: > 100 µM (inactive)
LXFL 529
  GI50: > 100 µM (inactive)
M14
  GI50: > 100 µM (inactive)
M19-MEL
  GI50: > 100 µM (inactive)
MOLT-4
  GI50: > 100 µM (inactive)
Malme-3M
  GI50: > 100 µM (inactive)
NCI-H226
  GI50: > 100 µM (inactive)
NCI-H23
  GI50: > 100 µM (inactive)
NCI-H460
  GI50: > 100 µM (inactive)
NCI-H522
  GI50: > 100 µM (inactive)
OVCAR-3
  GI50: > 100 µM (inactive)
OVCAR-4
  GI50: > 100 µM (inactive)
OVCAR-5
  GI50: > 100 µM (inactive)
RPMI-8226
  GI50: > 100 µM (inactive)
RXF 393
  GI50: > 100 µM (inactive)
SF-268
  GI50: > 100 µM (inactive)
SF-295
  GI50: > 100 µM (inactive)
SF-539
  GI50: > 100 µM (inactive)
SK-MEL-28
  GI50: > 100 µM (inactive)
SK-MEL-2
  GI50: > 100 µM (inactive)
SK-MEL-5
  GI50: > 100 µM (inactive)
SK-OV-3
  GI50: > 100 µM (inactive)
SN12C
  GI50: > 100 µM (inactive)
SNB-19
  GI50: > 100 µM (inactive)
SNB-75
  GI50: > 100 µM (inactive)
SNB-78
  GI50: > 100 µM (inactive)
SR
  GI50: > 100 µM (inactive)
SW-620
  GI50: > 100 µM (inactive)
TK-10
  GI50: > 100 µM (inactive)
U-251
  GI50: > 100 µM (inactive)
UACC-257
  GI50: > 100 µM (inactive)
UACC-62
  GI50: > 100 µM (inactive)
UO-31
  GI50: > 100 µM (inactive)
